Assay results published in patent US10258235B2, “Method and device for the assessment of bowel function” (Purdue Pharma L.P., priority 2005, dated 2019).
Values joined by “and” are separate entries in the source; they are usually repeats but may differ in a detail not shown here. Equal entries are not always repeated. “Also recorded” adds a separate entry of the source. Where two headings read alike, the source gives them in different places.

Columns and labels:
[1] = system: patients with severe chronic pain of tumor and non-tumor origin; conditions: for Mean Bowel Function Score, Mean V3: end of titration visit (V3, baseline before naloxone); for mean bowel function (±SD) at Visit 4: Visit 4 (after 1 week of naloxone); for mean bowel function (±SD) at the end of the maintenance phase: PP population
Experimental: (§1) The method of the present invention and analog scales of the present invention were employed in a clinical Phase II study conducted in Europe.
(§2) For some analyses, the last observation was carried forward for those ITT subjects who discontinued after Visit 4 (ITT/LOCF). In other instances, only the available data were used (ITT non-missing).
(§3) The Per Protocol (PP) population included all randomized patients who completed the study (including the follow-up phase) without major protocol violations. […] Only deviations from the visit window of the maintenance phase visits (visit 4 and 5) were regarded as major protocol violations. Deviations from the other visits were regarded as minor protocol violations. […] 3. Primary Efficacy Variables
(§4) a) Mean Pain during the last 7 days prior to each visit, based on the patient's twice-daily assessment of pain intensity using the 0-100 numerical analogue scale (NAS) (0=no pain and 100=worst imaginable pain). Mean Pain was calculated for each study visit as the mean value of the daily mean values of all patient's diary entries from the last 7 days. b) Mean bowel function: patient's assessment, at each study visit, of bowel function during the last 7 days prior to each visit. Mean bowel function was calculated from the mean of the three 0-100 NAS scores: ease of defecation (0=easy/no difficulty, 100=severe difficulty), feeling of incomplete bowel evacuation (0=not at all, 100=very strong), and judgment of constipation (0=not at all, 100=very strong). 4. Analgesic Efficacy Results
Mean bowel function was calculated for each study visit from the mean of the three NAS values ease/difficulty of defecation, feeling of incomplete bowel evacuation and judgment of constipation.
In addition, two-sided 95% CIs (CI, confidence interval) for the difference in means between the treatment groups were provided. […] These analyses were performed for the ITT and PP populations.
The parameter estimates derived were taken to display a surface plot of the whole dose range investigated. Moreover, a contour plot of the bowel function with a granulation of 10 was performed.

[2] = system: patients with severe chronic pain of tumor and non-tumor origin; assay: Mean pain (0-100 NAS) during the last 7 days before each visit, clinical Phase II study; format: in vivo, human; conditions: for Mean Pain, Mean V5 / Mean Pain, Mean V3: NAS 0-100; for Mean Pain, Mean V3: end of titration visit (V3, baseline before naloxone)
Experimental: as §1, §2, §3, §4

With C=CCN1CC[C@]23c4c5ccc(O)c4O[C@H]2C(=O)CC[C@@]3(O)[C@H]1C5 [Naloxone, naloxone] the “Mean Bowel Function Score, Mean V5” value ([1]; ITT (non-missing), end of maintenance (V5, 4 weeks), naloxone 10 mg/day plus oxycodone 40-80 mg/day, NAS 0-100, higher = worse) was 40.3, the “Mean Bowel Function Score, Mean V5” value ([1]; ITT (non-missing), end of maintenance (V5, 4 weeks), naloxone 10 mg/day plus oxycodone 40-80 mg/day, NAS 0-100, higher = worse, listed as naloxone) was 40.3 (±23.09) and 40.3 (±23.1) and the “Mean Bowel Function Score, Mean V5” value ([1]; ITT (non-missing), end of maintenance (V5, 4 weeks), naloxone 20 mg/day plus oxycodone 40-80 mg/day, NAS 0-100, higher = worse) was 31.3. The “Mean Bowel Function Score, Mean V5” value ([1]; ITT (non-missing), end of maintenance (V5, 4 weeks), naloxone 20 mg/day plus oxycodone 40-80 mg/day, NAS 0-100, higher = worse, listed as naloxone) was 31.3 (±25.82) and 31.3 (±25.8), the “Mean Bowel Function Score, Mean V5” value ([1]; ITT (non-missing), end of maintenance (V5, 4 weeks), naloxone 40 mg/day plus oxycodone 40-80 mg/day, NAS 0-100, higher = worse) was 26.1 and the “Mean Bowel Function Score, Mean V5” value ([1]; ITT (non-missing), end of maintenance (V5, 4 weeks), naloxone 40 mg/day plus oxycodone 40-80 mg/day, NAS 0-100, higher = worse, listed as naloxone) was 26.1 (±25.08) and 26.1 (±25.1). The “Mean Bowel Function Score, Mean V3” value ([1]; ITT non-missing, naloxone 10 mg/day group, NAS 0-100, higher = worse) was 53.5, the “Mean Bowel Function Score, Mean V3” value ([1]; ITT non-missing, naloxone 20 mg/day group, NAS 0-100, higher = worse) was 51.3 and the “Mean Bowel Function Score, Mean V3” value ([1]; ITT non-missing, naloxone 40 mg/day group, NAS 0-100, higher = worse) was 48.2. The “Mean Bowel Function Score, Mean V5” value ([1]; ITT/LOCF, end of maintenance visit (V5), naloxone 10 mg/day plus oxycodone 40-80 mg/day) was 40.1, the “Mean Bowel Function Score, Mean V5” value ([1]; ITT/LOCF, end of maintenance visit (V5), naloxone 20 mg/day plus oxycodone 40-80 mg/day) was 33.2 and the “Mean Bowel Function Score, Mean V5” value ([1]; ITT/LOCF, end of maintenance visit (V5), naloxone 40 mg/day plus oxycodone 40-80 mg/day) was 26.5. The “Mean Bowel Function Score, Mean V3” value ([1]; ITT/LOCF, naloxone 10 mg/day group) was 53.6, the “Mean Bowel Function Score, Mean V3” value ([1]; ITT/LOCF, naloxone 20 mg/day group) was 49.9 and the “Mean Bowel Function Score, Mean V3” value ([1]; ITT/LOCF, naloxone 40 mg/day group) was 47.7. The “mean bowel function (±SD) at Visit 4” value ([1]; ITT, naloxone 10 mg/day) was 42.1 (±25.53), the “mean bowel function (±SD) at Visit 4” value ([1]; ITT, naloxone 20 mg/day) was 34.2 (±30.04) and the “mean bowel function (±SD) at Visit 4” value ([1]; ITT, naloxone 40 mg/day) was 27.9 (±22.68). The “mean bowel function (±SD) at the end of follow-up” value ([1]; ITT, end of two-week follow-up on oxycodone only, former 40 mg naloxone group) was 42.4 (±23.19), the “mean bowel function (±SD) at the end of the maintenance phase” value ([1]; naloxone 10 mg/day) was 39.4 (±23.44) and the “mean bowel function (±SD) at the end of the maintenance phase” value ([1]; naloxone 20 mg/day) was 29.8 (±29.29). The “mean bowel function (±SD) at the end of the maintenance phase” value ([1]; naloxone 40 mg/day) was 29.6 (±28.34), the “effect of adding controlled release naloxone to controlled release oxycodone on mean bowel function (in words)” value ([1]; the two higher doses of naloxone (20 mg and 40 mg)) was “statistically significant improvement in mean bowel function” and the “Mean Pain, Mean V5” value ([2]; ITT non-missing, end of maintenance visit (V5, 4 weeks), naloxone 10 mg/day plus oxycodone 40-80 mg/day) was 37.2. For the same molecule, the “Mean Pain, Mean V5” value ([2]; ITT non-missing, end of maintenance visit (V5, 4 weeks), naloxone 20 mg/day plus oxycodone 40-80 mg/day) was 37.5, the “Mean Pain, Mean V5” value ([2]; ITT non-missing, end of maintenance visit (V5, 4 weeks), naloxone 40 mg/day plus oxycodone 40-80 mg/day) was 38.7 and the “Mean Pain, Mean V3” value ([2]; ITT non-missing, naloxone 10 mg/day group, oxycodone 40-80 mg/day) was 35.9. The “Mean Pain, Mean V3” value ([2]; ITT non-missing, naloxone 20 mg/day group, oxycodone 40-80 mg/day) was 39.8, the “Mean Pain, Mean V3” value ([2]; ITT non-missing, naloxone 40 mg/day group, oxycodone 40-80 mg/day) was 38.1 and the “Mean Pain, Mean V5” value ([2]; PP, end of maintenance visit (V5), naloxone 10 mg/day plus oxycodone 40-80 mg/day) was 38.8. For the same molecule, the “Mean Pain, Mean V5” value ([2]; PP, end of maintenance visit (V5), naloxone 20 mg/day plus oxycodone 40-80 mg/day) was 36.1, the “Mean Pain, Mean V5” value ([2]; PP, end of maintenance visit (V5), naloxone 40 mg/day plus oxycodone 40-80 mg/day) was 38.7 and the “Mean Pain, Mean V3” value ([2]; PP, naloxone 10 mg/day group) was 38.0. For the same molecule, the “Mean Pain, Mean V3” value ([2]; PP, naloxone 20 mg/day group) was 40.1, the “Mean Pain, Mean V3” value ([2]; PP, naloxone 40 mg/day group) was 39.0 and the “Analgesic efficacy / mean pain, active naloxone versus naloxone placebo (in words)” value ([2]; end of maintenance, naloxone 10-40 mg/day added to oxycodone 40-80 mg/day) was “did not point to a difference in analgesic efficacy; also recorded: no evidence of changes in mean pain with varying amounts of naloxone”.
